In patent US20050176822A1, “Phenylacetonitrile derivatives and hair tonics and external preparations for skin containing the derivatives” (priority 2002, published 2005):

Legend:
[1] = system: artificial bulbus pili site (human dermal papilla cells + outer root sheath cells); assay: Growth-stimulative activity test on artificial human bulbus pili cell (Alamar Blue relative respiration level); format: cell-based; conditions: for Judgment (cell growth-stimulative effect by relative respiration level): final concentration 10^−12 M or 10^−14 M (not said which), 2 days incubation, negative control 0.1% ethanol = 100%; for cell growth-stimulative effect on artificial bulbus pili site, in words: final concentration 10^−12 M or 10^−14 M, summary of Table 2
Protocol: Growth-Stimulative Activity Test on Artificial Human Bulbus Pili Cell
(1) Preparation of First Stage Incubated Outer Root Sheath Cell
A bulbus pili site of a hair follicle isolated from a human scalp obtained by a plastic surgery was excised and then enzymatically treated in Keratinocyte-SFM medium (GibcoBRL:11965-011) supplemented with 1000 unit/ml dispase+0.2% collagenase at 37° C. for 30 minutes. After unnecessary hair follicle mesenchymal tissue such as connective tissue root sheath was removed therefrom using the tip of a syringe needle (27G), the residue was placed in the incubating space of an incubator coated with collagen and explant culture was performed in Keratinocyte-SFM medium supplemented with an antibacterial agent. After incubation for about 1 week, the medium was exchanged upon ensuring the growth of the cells. Cells grown to be subconfluent were treated with PBS(−)+0.05% trypsin at 37° C. for 3 minutes and the reaction was stopped with an equivalent amount or more of PBS(−)+0.1% trypsin inhibitor (Sigma). The cells were collected by centrifugal separation (1200 rpm×5 min) and suspended again in PBS(−). The cells were collected by centrifugal separation (1200 rpm×5 min), thereby washing the cells. Washed cells were stored while being frozen in a liquid nitrogen using Cellbanker II (DIA-IATRON: ZCB-201(100)), thereby obtaining the first stage incubated outer root sheath cells.
(2) Preparation of First Stage Incubated Dermal Papilla Cell
From a bulbus pili site obtained by excising a hair follicle isolated from a human scalp obtained by a plastic surgery, using the tip of a syringe needle (27G), a dermal papilla site was isolated under a stereoscopic microscope and placed in the incubating space of an incubator coated with collagen. Then, explant culture was performed in 10% FBS-added DMEM medium (GibcoBRL: 11965-092) supplemented with an antibacterial agent. After incubation for about 2 week, the medium was exchanged upon ensuring the growth of the cells. Cells grown to be subconfluent were treated with PBS(−)+0.05% trypsin at 37° C. for 3 minutes and the reaction was stopped with an equivalent amount or more of PBS(−)+0.1% trypsin inhibitor (Sigma). The cells were collected by centrifugal separation (1200 rpm×5 min) and suspended again in PBS(−). The cells were collected by centrifugal separation (1200 rpm×5 min), thereby washing the cells. Washed cells were stored while being frozen in a liquid nitrogen using Cellbanker II (DIA-IATRON: ZCB-201(100)), thereby obtaining the first stage incubated dermal papilla cells.
(3) Manufacture of the Artificial Bulbus Pili Site
The first stage incubated dermal papilla cell obtained above was subcultured three times (37° C., 5% CO2) in a 10% FBS-supplemented DMEM medium (GibcoBRL: 11965-092) in a 75 cm^2 incubation flask coated with Type I collagen, and then stored while being frozen in a liquid nitrogen using Cellbanker II (DIA-IATRON: ZCB-201(100)) (DPc).
Also, the first stage incubated outer root sheath cell obtained above was subcultured three times (37° C., 5% CO2) in a Keratinocyte-SFM medium (GibcoBRL: 11965-011) in a 75 cm^2 incubation flask coated with Type I collagen, and then stored while being frozen in a liquid nitrogen using Cellbanker II (DIA-IATRON: ZCB-201(100)) (ORSc).
The DPc and ORSc stored as frozen were thawed, washed with an ice-cooled Keratinocyte-SFM medium, dispersed in Keratinocyte-SFM(+) medium (which is Keratinocyte-SFM medium supplemented with 5 ng/mL epidermal growth factor and 5 μl/mL bovine pituitary glanusi extract), and subjected to an accurate cell density measurement using a hemocytometer. Then, each cell density was adjusted at 5×10^4 cells/ml, and the cell dispersions in equal volumes were combined under cooling with ice. 80 μl aliquots of the combined cell suspending Keratinocyte-SFM(+) medium were inoculated into individual wells of Sumilon celltight spheroid 96U plate (Sumitomo Bakelit co.,), and incubated for 2 days (37° C., 5% CO2). […]

[2] = system: immortalized human outer root sheath cell; assay: Growth-stimulative activity test on immortalized human outer root sheath cell ([3H]-thymidine uptake); format: cell-based; conditions: negative control (KBM+dH2O) = 100%, 2 days incubation
Protocol: Growth-Stimulative Activity Test on Immortalized Human Outer Root Sheath Cell (I) Immortalized Human Outer Root Sheath Cell Keratinocyte-SFM medium (Gibco BRL), to which a supplement attached with the medium was added, was used for culture on a dish which surface was coated with collagen. The cell was cultured until it became semiconfluent and then peeled off with 0.05% trypsin/PBS(−) and subcultured. 30-40th stage culture cells were used for study on growth. (2) Sample Preparation Each tested compound described below is dissolved with distilled water at the concentration of 10 mM and sterilized through Millipore filter. This aqueous solution was diluted with KBM at a predetermined concentration and added to the cell as a sample. The immortalized human outer root sheath cell was inoculated into a microplate (Iwaki, 24 wells) (20000 cells/well) with a growth medium KGM (Sanko Junyaku Co., Ltd., CC-3111) and incubated at 37° C. for 1 day. After each well was washed once with basal medium KBM (Sanko Junyaku Co., Ltd., CC-3101), the medium was exchanged with KBM containing each sample, and then incubated further for 2 days. [^3H]-Thymidine (Amersham Pharmacia Biotech K.K., TRK758, the final concentration: 20 μCi/ml) was added thereto and incubated at 37° C. for 3 hours. The cell was peeled off with 0.25% trypsin/PBS(−) and collected on a glass filter (Watmann, GLC). After [^3H]-thymidine that is not taken into the cell was removed by washing with distilled water, the filter was air-dried and then the radioactivity was measured by a liquid scintillation counter. […], using the uptake quantity of radioactivity in the sample-added group when that in the negative control medium (KBM+dH2O) was regarded as 100%, the immortalized human outer root sheath cell growth activity was evaluated.

## CCN(C)CCCC(C#N)(c1ccc(OC)c(OC)c1)C(C)C (stereo not drawn) [Example 4]
[1]
  Judgment (cell growth-stimulative effect by relative respiration level): +++ (Very strong effect is recognized (115% or more))
  cell growth-stimulative effect on artificial bulbus pili site, in words: very strong effects

## CCCN(C)CCCC(C#N)(c1ccc(OC)c(OC)c1)C(C)C (stereo not drawn) [Example 5]
[1]
  Judgment (cell growth-stimulative effect by relative respiration level): + (Effect is recognized (105% or more, and less then 110%))

## COc1ccc(C(C#N)(CCCN(C)C(C)C)C(C)C)cc1OC (stereo not drawn) [Example 6]
[1]
  Judgment (cell growth-stimulative effect by relative respiration level): + (Effect is recognized (105% or more, and less then 110%))

## CCCCN(C)CCCC(C#N)(c1ccc(OC)c(OC)c1)C(C)C (stereo not drawn) [Example 7]
[1]
  Judgment (cell growth-stimulative effect by relative respiration level): + (Effect is recognized (105% or more, and less then 110%))

## COc1ccc(C(C#N)(CCCN(C)CC(C)C)C(C)C)cc1OC (stereo not drawn) [Example 8]
[1]
  Judgment (cell growth-stimulative effect by relative respiration level): ++ (Strong effect is recognized (110% or more, and less than 115%))
  cell growth-stimulative effect on artificial bulbus pili site, in words: strong effects

## CCCN(CCC)CCCC(C#N)(c1ccc(OC)c(OC)c1)C(C)C (stereo not drawn) [Example 12]
[1]
  Judgment (cell growth-stimulative effect by relative respiration level): + (Effect is recognized (105% or more, and less then 110%))

## COc1ccc(C(C#N)(CCCN(CC(C)C)CC(C)C)C(C)C)cc1OC (stereo not drawn) [Example 15]
[1]
  Judgment (cell growth-stimulative effect by relative respiration level): + (Effect is recognized (105% or more, and less then 110%))

## COc1ccc(C(C#N)(CCCN(C)CCC(C)C)C(C)C)cc1OC.Cl (stereo not drawn) [Example 21, 2-(3′,4′-dimethoxyphenyl)-2-isopropyl-5-[N-methyl-N-(3-methylbutyl)amino]-pentanenitrile hydrochloride]
[2]; concentration 10^−9 M
  [^3H]-thymidine uptake quantity: 151%
[2]; concentration 10^−10 M
  [^3H]-thymidine uptake quantity: 143%
[2]; concentration 10^−11 M
  [^3H]-thymidine uptake quantity: 160%
[2]; concentration 10^−12 M
  [^3H]-thymidine uptake quantity: 114%
[2]; concentration 10^−13 M
  [^3H]-thymidine uptake quantity: 118%

## CNCCC[C@](C#N)(c1ccc(OC)c(OC)c1)C(C)C.Cl [Example 22, (R)-2-(3′,4′-dimethoxyphenyl)-2-isopropyl-5-methylaminopentanenitrile hydrochloride]
[2]; concentration 10^−9 M
  [^3H]-thymidine uptake quantity: 105%
[2]; concentration 10^−10 M
  [^3H]-thymidine uptake quantity: 98%
[2]; concentration 10^−11 M
  [^3H]-thymidine uptake quantity: 111%
[2]; concentration 10^−12 M
  [^3H]-thymidine uptake quantity: 135%
[2]; concentration 10^−13 M
  [^3H]-thymidine uptake quantity: 153%
[2]; concentration 10^−14 M
  [^3H]-thymidine uptake quantity: 160%

## COc1ccc([C@@](C#N)(CCCN(C)CCC(C)C)C(C)C)cc1OC.Cl [Example 23, (R)-2-(3′,4′-dimethoxyphenyl)-2-isopropyl-5-[N-methyl-N-(3-methylbutyl)amino]-pentanenitrile hydrochloride]
[2]; concentration 10^−9 M
  [^3H]-thymidine uptake quantity: 115%
[2]; concentration 10^−10 M
  [^3H]-thymidine uptake quantity: 106%
[2]; concentration 10^−11 M
  [^3H]-thymidine uptake quantity: 107%
[2]; concentration 10^−12 M
  [^3H]-thymidine uptake quantity: 117%
[2]; concentration 10^−13 M
  [^3H]-thymidine uptake quantity: 114%
[2]; concentration 10^−14 M
  [^3H]-thymidine uptake quantity: 125%

## COc1ccc(C(C#N)(CCCN2CCOCC2)C(C)C)cc1OC (stereo not drawn) [Example 24, 2-(3′,4′-dimethoxyphenyl)-2-isopropyl-5-morpholine-4″-yl-pentanenitrile]
[1]
  Judgment (cell growth-stimulative effect by relative respiration level): ± (Weak effect is recognized (102% or more, and less then 105%))

## COc1ccc(C(C#N)(CCCn2cccc2)C(C)C)cc1OC (stereo not drawn) [Example 25, 2-(3′,4′-dimethoxyphenyl)-2-isopropyl-5-pyrrole-1″-yl-pentanenitrile]
[1]
  Judgment (cell growth-stimulative effect by relative respiration level): ++ (Strong effect is recognized (110% or more, and less than 115%))
  cell growth-stimulative effect on artificial bulbus pili site, in words: strong effects

## COc1ccc(C(C#N)(CCCn2ccnc2)C(C)C)cc1OC (stereo not drawn) [Example 26, 2-(3′,4′-dimethoxyphenyl)-5-imidazole-1″-yl-2-isopropylpentanenitrile]
[1]
  Judgment (cell growth-stimulative effect by relative respiration level): + (Effect is recognized (105% or more, and less then 110%))

## COc1ccc(C(C#N)(CCCn2cccn2)C(C)C)cc1OC (stereo not drawn) [Example 27, 2-(3′,4′-dimethoxyphenyl)-2-isopropyl-5-pyrazole-1″-yl-pentanenitrile]
[1]
  Judgment (cell growth-stimulative effect by relative respiration level): + (Effect is recognized (105% or more, and less then 110%))

## CCCCCN(C)CCCC(C#N)(c1ccc(OC)c(OC)c1)C(C)C (stereo not drawn) [Example 28, 2-(3′,4′-dimethoxyphenyl)-2-isopropyl-5-[N-methyl-N-(n-pentyl)amino]pentane nitrile]
[1]
  Judgment (cell growth-stimulative effect by relative respiration level): ++ (Strong effect is recognized (110% or more, and less than 115%))
  cell growth-stimulative effect on artificial bulbus pili site, in words: strong effects
